According to patent US20230142353A1, “IMPLANT DEVICES AND METHODS FOR TREATMENT OF CERVICAL CANCER” (Washington University, priority 2020, published 2023):

Columns and labels:
[1] = system: cervical cancer cell lines C33A, Me-180, HT3, Caski, and SiHa; experiment: In vitro cytotoxicity of Cis-Pt, MTT assay; assay type: cell-based, Human; conditions: average dose-response curve of 5 cell lines, 48 hours, read-out: average IC50 (Av-IC50)
Protocol: Human cervical cancer cell lines C33A, Me-180, HT3, Caski, and SiHa were purchased from American Type Culture Collection (ATCC; Manassas, Va.). Cell lines were cultured in Dulbecco's Modified Eagle Medium (DMEM; Gibco Life Technologies, Grand Island, N.Y.) supplemented with 10% fetal bovine serum (FBS; Gibco Life Technologies), 2 mmol/L of L-glutamine, 100 ng/mL penicillin, and 100 ng/mL streptomycin (Corning CellGro, Mediatech, Manassas, Va.). All cells were cultured at 37° C., 5% CO2 in a NuAire water jacket incubator (Plymouth, Minn.).
The in vitro cytotoxicity on cervical cancer cell lines was assessed using an MTT assay (Sigma Aldrich). Briefly, cells were seeded at 5×10^3 cells/well in 96-well plates overnight at 37° C. to promote their adhesion to the plates. […] After 48 hours of treatment, MTT solution was added to the cells for 3 hours, and then the stop solution was added to dissolve the formazan crystals overnight. The wells were read with SpectraMax i3 multimode microplate spectrophotometer (Molecular Devices, San Jose, Calif.) at 570 nm. Dose-response curves were graphed and the average dose-response curve was calculated.

[2] = system: Cervical cancer cell lines; experiment: Pt content in cell lines in vitro (ICP-MS); assay type: cell-based, Human; conditions: treated at 6 μM (Av-IC50) for 48 hours, average
Protocol: Cervical cancer cell lines (10×10^6 cells) were treated Cis-Pt at Av-IC50 for 48 hours. Cells were then lifted with trypsin (0.05% Trypsin-EDTA, Gibco Life Technologies), spun down, and washed 3 times, to eliminate free Cis-Pt. Cell pellets were then weighed, digested, and analyzed by ICP-MS, and the average Pt content in cell lines in vitro (Av-Pt-in vitro) was calculated.

[3] = Pt accumulation in cervical cancer patient biopsies (ICP-MS); assay type: in vivo, Human; conditions: for drug accumulation in patient tissues lower than in cell lines at in vitro efficacious concentration: patient biopsies vs cell lines treated at 6 μM
Protocol: Patients with biopsy-proven cervical carcinoma were enrolled into an institutional review board-approved prospective study in which cervical tumor biopsies were obtained 3 weeks into chemoradiation treatment. All patients were treated with definitive chemoradiation treatment, which consisted of external beam radiation therapy to the pelvis (50.4 Gy) 4 days per week using intensity-modulated radiation therapy with a split-pelvis technique with 6 weekly brachytherapy boosts to a dose of 6.5 Gy per fraction to point A, starting at week 1. Concurrent with radiation therapy, all patients received the conventional treatment of cisplatin (40 mg/m^2, intravenous [IV]) weekly. Cervical tumor samples were collected immediately before delivery of the third brachytherapy treatment, approximately half-way through the treatment course. Samples were collected, immediately snap-frozen, and processed for storage. The average time between cisplatin administration and biopsy was 4.5 days (range, 1-17 days).
To determine tissue Cis-Pt accumulation within the patient biopsy samples, tissue digestion and inductively coupled plasma mass spectrometry (ICP-MS) were performed to quantify the levels of Pt in the samples. Briefly, biopsy samples were thawed and precisely weighed (±0.1 mg) before being digested in concentrated nitric acid (HNO3) overnight. Samples were then diluted with deionized water to a final 5% HNO3 (v/v) and digested using a microwave digestion system (MARS 6 Microwave Digestion System, CEM, Matthews, N.C.) at 200° C. for 45 minutes. Samples were analyzed with ICP-MS (ELAN DRC II ICP-MS, Perkin Elmer, Inc, Waltham, Mass.) for Pt content, against a calibration curve of Pt standards of 0, 0.1, 1, 10, 50, 100, and 250 parts per billion (ppb) in 5% HNO3, which were prepared from 10 parts per million Pt standard solution (Inorganic Ventures, Christiansburg, Va.). Terbium was used as an internal standard throughout the ICP-MS analysis. The average Pt content in clinical biopsies (Av-Pt-Clin) was calculated.
[…]

[4] = system: Cervical cancer cell lines; experiment: In vitro radio-sensitization with Cis-Pt, MTT assay and combination index; assay type: cell-based, Human; conditions: for sensitization to radiation therapy: 6 Gy
Protocol: Clinically relevant Pt concentration (Clin-conc) was estimated as a fraction of Av-IC50 based on the relative difference between tissue Pt contents in clinical biopsies and in vitro: Av-IC50×(Av-Pt-Clin/Av-Pt-in vitro). The radiosensitizing effect of Cis-Pt on cervical cancer cell lines was assessed using an MTT assay. Briefly, cells were treated with or without Cis-Pt at Av-IC50 (6 μM) or Clin-conc (1 μM) for a duration of 24 or 48 hours. Additionally, cells were also treated with or without a single-fraction dose of 6 Gy (4 Gy/min) using an RS2000 160 kV x-ray Irradiator equipped with a 0.3-mm copper filter (Rad Source Technologies Inc, Buford, Ga.), at the beginning of the treatment. At the end of each treatment, an MTT assay was performed to determine the survival of the cells.
The combination effect between Cis-Pt treatment and radiation was evaluated by calculating the combination index (CI) using the formula: CI=(Ea×Eb)/Eab, where Ea and Eb are the individual effects (fractional killing, 0≤Ei≤1) and Eab is the combination effect of drugs a and b. This index represents the ratio between the predicted combination effect and the actual combination effect. When the CI=1, the effect is additive. When the CI<1, the effect is supra-additive; when CI>1, the effect is sub-additive.

[5] = system: C33A cervical cancer cells; experiment: In vitro clonogenic survival; assay type: cell-based, Human; conditions: for clonogenic growth: with or without radiation
Protocol: C33A cervical cancer cells (0.5×10^6 cells/condition) were plated in T25 flasks 24 hours before treatment. Cells were treated with Cis-Pt at 0, 1, 3, or 6 μM for 4 hours, and subjected to irradiation at 0 or 6 Gy (4 Gy/min). Cells were then lifted with trypsin, counted, and were plated in triplicates for each condition at 500 cells per well in 24 well plates. After 12 days of culture, cells were fixed and stained with 0.5% Crystal Violet (Sigma Aldrich) in methanol, washed, and dried.

[6] = In vivo biodistribution of Pt in subcutaneous C33A tumor model (ICP-MS); design: species or system athymic nude mice; conditions: systemic (IV injection) delivery, 1 mg/kg, 24 hours
[7] = system: C33A subcutaneous cervical tumors; experiment: In vivo efficacy, tumor progression with or without radiation; design: species or system athymic nude mice
Protocol: C33A cells (2×10^6/mouse) were suspended in 50% Matrigel and 50% DMEM media. The suspended C33A cells were injected subcutaneously around the lower back of 42 female athymic nude mice that were 6 to 8 weeks old. Tumor progression was confirmed after 3 weeks, and mice were then randomized into 6 groups (n=7) and treated with: (1) tail vein injection of PBS (Vehicle-IV), (2) Cis-Pt-IV at 1 mg/kg, (3) Cis-Pt-Implant at 1 mg Cis-Pt/kg, (4) Vehicle-IV+radiation (5 days×2 Gy/day), (5) Cis-Pt-IV+radiation, and (6) Cis-Pt-Implant+radiation.
In a separate experiment, the effect of a fractionated radiation dose was compared to a single high dose of radiation administered concurrently with Cis-Pt-Implants. C33A cells (2×10^6/mouse) were suspended in 50% Matrigel and 50% DMEM media. The suspended C33A cells were injected subcutaneously around the lower back of 14 female athymic nude mice that were 6 to 8 weeks old (Charles Rivers Laboratories). Tumor progression was confirmed after 3 weeks, mice were then intratumorally implanted with Cis-Pt-loaded implant (1 mg/kg) and randomized into 2 groups (n=7), treated with: (1) fractionated radiation (5 days×2 Gy/d), mimicking external beam radiation; or (2) a single high dose of 8 Gy, mimicking brachytherapy.
For the in vivo experiments above, tumor progression was monitored by measurement of tumor sizes in all treatment groups every 2 days. […]

[8] = 24 hours after IV injection of 100 mg/m^2; cited from earlier work

With `N.N.[Cl][Pt][Cl]` [Cis-Pt, cis-Diammineplatinum(II) dichloride] the IC50 [1] was 6 µM, the “Pt levels in cell lines” value [2] was “about 2560 ng Pt/g tissue” and the “Pt levels detected in patient tissues” value ([3]; 40 mg/m^2 IV weekly, biopsies about 3 weeks into chemoradiation, average of 20) was “about 430 ng Pt/g tissue”. The “influence of time of biopsy since last injection on Pt level within the tumor” value ([3]; 1-17 days after injection) was “not a major factor”, the “drug accumulation in patient tissues lower than in cell lines at in vitro efficacious concentration” value [3] was “about 6 fold” and the “drug accumulation in patient tissues lower than in cell lines at in vitro efficacious concentration” value ([3]; listed as Cisplatin) was 6 fold. For the same compound, the “sensitization to radiation therapy” value ([4]; 1 μM Cis-Pt) was “limited radio-sensitization”, the “combination effect of Cis-Pt and radiation by CI” value ([4]; 1 μM treatment) was “sub-additive” and the “sensitization to radiation therapy” value ([4]; 6 μM Cis-Pt) was “significant sensitization to radiation therapy in all cell lines”. For the same compound, the “combination effect of Cis-Pt and radiation by CI” value ([4]; 6 μM treatment) was “supra-additive”, the clonogenic cell survival ([5]; 1 μM, alone or in combination with radiation (6 Gy)) was “unable to limit clonogenic cell survival” and the clonogenic growth ([5]; 3 μM) was “significantly restricted clonogenic growth”. The clonogenic growth ([5]; 6 μM) was “significantly restricted clonogenic growth”, the “Pt concentration in the tumor” value [6] was 53 ng Pt/g tissue and the “treatment outcome with fractionated radiation” value ([7]; systemic delivery 1 mg/kg + 2 Gy×5 days) was “improved treatment outcome compared with radiation alone”. For the same compound, the tumor progression ([7]; systemic delivery (IV) 1 mg/kg, without radiation) was “did not alter tumor progression” and the “intratumoral platinum (Pt) concentration” value [8] was 0.9 ng/mg.
